# Measurements as given in patent US11629171B2, “Beta-hairpin peptidomimetics” (POLYPHOR AG, priority 2017, dated 2023).
# Where a SMILES comes first, the peptide text is derived from it. Bridges are numbered along the chain shown (N, C = ends). Roman numbers before positions name the chains, in order. [ ]: non-standard residue; d: D form. Pen = CC(C)(S)[C@H](N)C(=O)O; Tle = CC(C)(C)[C@H](N)C(=O)O; NMeV = CN[C@H](C(=O)O)C(C)C; Hiv = CC(C)[C@H](O)C(=O)O; dDab = NCC[C@@H](N)C(=O)O; hSer = N[C@@H](CCO)C(=O)O; Dab = NCC[C@H](N)C(=O)O; Dap = NC[C@H](N)C(=O)O
# Legend:
# Assay type in all cases: cell-based
# [1] = system: Acinetobacter baumannii 872842; settings: 872842
# How it was run: (§1)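 Cation-adjusted MH-II broth, 0.002% polysorbate 80, inoculum near 10^6 CFU/mL. MIC read visually after 18-20 h, 35° C; units μg/mL.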
# [2] = system: Acinetobacter baumannii DSM 30008; settings: DSM 30008
# How it was run: as §1
# [3] = system: Enterobacter cloacae 848840; settings: 848840
# How it was run: as §1
# [4] = system: Escherichia coli 926415; settings: 926415
# How it was run: as §1
# [5] = system: Escherichia coli ATCC 25922; settings: ATCC 25922
# How it was run: as §1
# [6] = system: Klebsiella pneumoniae 968733; settings: 968733
# How it was run: as §1
# [7] = system: Klebsiella pneumoniae SSI #3010; settings: SSI #3010
# How it was run: as §1
# [8] = system: Pseudomonas aeruginosa ATCC 27853; settings: ATCC 27853
# How it was run: as §1
# [9] = system: human red blood cells (hRBC); assay: Hemolysis; settings: red cells of human, 1 h, 200
# How it was run: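 Percent lysis of human red cells was derived from OD540 of the supernatant, referenced to 2% Triton X-100, after a 1 h, 37° C incubation of 20% (v/v) cells with 200 μg/mL peptide.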
MIC [1] [µg/mL],MIC [2] [µg/mL],MIC [3] [µg/mL],MIC [4] [µg/mL],MIC [5] [µg/mL],MIC [6] [µg/mL],MIC [7] [µg/mL],MIC [8] [µg/mL],Acinetobacter baumannii DSM 30008 MIC [2] [µg/mL],Escherichia coli ATCC 25922 MIC [5] [µg/mL],Klebsiella pneumoniae SSI #3010 MIC [7] [µg/mL],Pseudomonas aeruginosa ATCC 27853 MIC [8] [µg/mL],SMILES,Hemolysis at 200 μg/mL [9] [%]
0.0625,0.0625,0.125,0.125,0.0625,0.25,0.125,0.125,–,–,–,–,CC(=O)N[C@H](C(=O)N[C@H](C(=O)N[C@@H](Cc1ccc(O)cc1)C(=O)N[C@H]1CSSC(C)(C)[C@@H](C(=O)N[C@H](C(=O)N[C@H](C(=O)N[C@H](C(N)=O)[C@@H](C)O)[C@@H](C)O)C(C)(C)C)NC(=O)[C@H](Cc2c[nH]c3ccccc23)NC(=O)[C@H](CO)NC(=O)[C@@H](CCN)NC(=O)[C@H](CCC(=O)N[C@@H](CCN)C(=O)N[C@H](C(=O)N[C@@H](CN)C(=O)N[C@H]2CCNC(=O)[C@H]([C@@H](C)O)NC(=O)[C@H](CCN)NC(=O)[C@H](CCN)NC(=O)[C@H](CC(C)C)NC(=O)[C@@H](CC(C)C)NC(=O)[C@H](CCN)NC2=O)[C@@H](C)O)NC1=O)[C@@H](C)O)C(C)C [Ex. 221] (I: Ac-VTYCE[dDab]SW[Pen][Tle]TT-NH2 / II: [Dab]T[Dap][Dab][Dab][dL]L[Dab][Dab]T; disulfide I:4-I:9; amide I:5-II:N; lactam II:4-II:C),2
0.0625,–,0.25,0.125,–,0.125,–,–,0.03125,0.0625,0.0625,0.0625,CC(=O)N[C@H](C(=O)N[C@H]1CSSC[C@@H](C(=O)N[C@@H](CO)C(=O)N[C@@H](CC(N)=O)C(N)=O)NC(=O)[C@H](C(C)C)NC(=O)[C@H](CO)NC(=O)[C@H](Cc2c[nH]c3ccccc23)NC(=O)[C@H](CCN)NC(=O)[C@@H](CCN)NC(=O)[C@H](CCC(=O)N[C@@H](CCN)C(=O)N[C@H](C(=O)N[C@@H](CN)C(=O)N[C@H]2CCNC(=O)[C@H]([C@@H](C)O)NC(=O)[C@H](CCN)NC(=O)[C@H](CCN)NC(=O)[C@H](CC(C)C)NC(=O)[C@@H](CC(C)C)NC(=O)[C@H](CCN)NC2=O)[C@@H](C)O)NC(=O)[C@H](CO)NC(=O)[C@H](Cc2ccc(O)cc2)NC1=O)C(C)C [Ex. 373] (I: Ac-VCYSE[dDab][Dab]WSVCSN-NH2 / II: [Dab]T[Dap][Dab][Dab][dL]L[Dab][Dab]T; disulfide I:2-I:11; amide I:5-II:N; lactam II:4-II:C),<1
0.25,–,0.125,0.5,–,0.5,–,–,0.0625,0.0625,0.125,0.25,CC(=O)N[C@H](C(=O)N[C@H]1CSSC[C@@H](C(=O)N[C@@H](CO)C(N)=O)NC(=O)[C@H](C(C)C)NC(=O)[C@H](CO)NC(=O)[C@H](Cc2c[nH]c3ccccc23)NC(=O)[C@H](CCC(=O)N[C@@H](CCN)C(=O)N[C@H](C(=O)N[C@@H](CN)C(=O)N[C@H]2CCNC(=O)[C@H]([C@@H](C)O)NC(=O)[C@H](CCN)NC(=O)[C@H](CCN)NC(=O)[C@H](CC(C)C)NC(=O)[C@@H](CC(C)C)NC(=O)[C@H](CCN)NC2=O)[C@@H](C)O)NC(=O)[C@@H](CCN)NC(=O)CNC(=O)[C@H](CO)NC(=O)[C@H](Cc2ccc(O)cc2)NC1=O)C(C)C [Ex. 357] (I: Ac-VCYSG[dDab]EWSVCS-NH2 / II: [Dab]T[Dap][Dab][Dab][dL]L[Dab][Dab]T; disulfide I:2-I:11; amide I:7-II:N; lactam II:4-II:C),<1
0.5,0.125,0.25,1,0.0625,1,0.125,0.25,–,–,–,–,CC(C)C[C@@H]1NC(=O)[C@@H](CC(C)C)NC(=O)[C@H](CCN)NC(=O)[C@@H](NC(=O)[C@H](CN)NC(=O)[C@@H](NC(=O)[C@H](CCN)NC(=O)CC[C@@H]2NC(=O)[C@H](CCN)NC(=O)[C@H](Cc3ccc(O)cc3)NC(=O)[C@@H](NC(=O)[C@@H](O)C(C)C)CSSC[C@@H](C(=O)N[C@@H](CO)C(N)=O)NC(=O)[C@H](C(C)C)NC(=O)[C@H](CCC(=O)O)NC(=O)[C@H](Cc3c[nH]c4ccccc34)NC(=O)[C@H](CCO)NC(=O)[C@@H](CCN)NC2=O)[C@@H](C)O)CCNC(=O)[C@H]([C@@H](C)O)NC(=O)[C@H](CCN)NC(=O)[C@H](CCN)NC1=O [Ex. 157] (I: H-[Hiv]CY[Dab]E[dDab][hSer]WEVCS-NH2 / II: [Dab]T[Dap][Dab][Dab][dL]L[Dab][Dab]T; disulfide I:2-I:11; amide I:5-II:N; lactam II:4-II:C),<1
0.03125,–,0.03125,0.01562,–,0.0625,–,–,0.007813,0.01562,0.03125,0.0625,CC(=O)N[C@H](C(=O)N[C@H]1CSSC[C@@H](C(=O)N[C@@H](C)C(=O)N[C@@H](C(N)=O)[C@H](C)O)NC(=O)[C@H](C(C)C)NC(=O)[C@H](CO)NC(=O)[C@H](Cc2c[nH]c3ccccc23)NC(=O)[C@H](CO)NC(=O)[C@@H](CCN)NC(=O)[C@H](CCC(=O)N[C@@H](CCN)C(=O)N[C@H](C(=O)N[C@@H](CN)C(=O)N[C@H]2CCNC(=O)[C@H]([C@@H](C)O)NC(=O)[C@H](CCN)NC(=O)[C@H](CCN)NC(=O)[C@H](CC(C)C)NC(=O)[C@@H](CC(C)C)NC(=O)[C@H](CCN)NC2=O)[C@@H](C)O)NC(=O)[C@H](CCN)NC(=O)[C@H](Cc2ccc(O)cc2)NC1=O)C(C)C [Ex. 368] (I: Ac-VCY[Dab]E[dDab]SWSVCA[dT]-NH2 / II: [Dab]T[Dap][Dab][Dab][dL]L[Dab][Dab]T; disulfide I:2-I:11; amide I:5-II:N; lactam II:4-II:C),1

SMILES,MIC [1] [µg/mL],MIC [2] [µg/mL],MIC [3] [µg/mL],MIC [4] [µg/mL],MIC [5] [µg/mL],MIC [6] [µg/mL],MIC [7] [µg/mL],MIC [8] [µg/mL],Acinetobacter baumannii DSM 30008 MIC [2] [µg/mL],Escherichia coli ATCC 25922 MIC [5] [µg/mL],Klebsiella pneumoniae SSI #3010 MIC [7] [µg/mL],Pseudomonas aeruginosa ATCC 27853 MIC [8] [µg/mL],Hemolysis at 200 μg/mL [9] [%]
"CN[C@H](C(=O)N[C@H]1CSSC[C@@H](C(=O)N[C@@H](CO)C(N)=O)NC(=O)[C@H](C(C)C)NC(=O)[C@@H]2CSSC[C@H](NC(=O)[C@H](Cc3ccc(O)cc3)NC1=O)C(=O)N[C@@H](CCC(=O)N[C@@H](CCN)C(=O)N[C@H](C(=O)N[C@@H](CCN)C(=O)N[C@H]1CCNC(=O)[C@H]([C@@H](C)O)NC(=O)[C@H](CCN)NC(=O)[C@H](CCN)NC(=O)[C@H](CC(C)C)NC(=O)[C@@H](CC(C)C)NC(=O)[C@H](CCN)NC1=O)[C@@H](C)O)C(=O)N[C@H](CCN)C(=O)N[C@@H](CCO)C(=O)N[C@@H](Cc1c[nH]c3ccccc13)C(=O)N2)C(C)C [Ex. 177] (I: H-[NMeV]CYCE[dDab][hSer]WCVCS-NH2 / II: [Dab]T[Dab][Dab][Dab][dL]L[Dab][Dab]T; disulfide I:2-I:11, I:4-I:9; amide I:5-II:N; lactam II:4-II:C)",0.125,0.0625,1,0.25,0.0625,0.5,0.25,0.125,–,–,–,–,<1
